The record followed here is ChEMBL document CHEMBL1126630, “Adenosine-5'-carboxaldehyde: a potent inhibitor of S-adenosyl-L-homocysteine hydrolase” (J Med Chem, 1993).

Experiment [1] deals with T1, Adenosylhomocysteinase (Rattus norvegicus) (UniProt P10760).
T1 sequence (whole entry): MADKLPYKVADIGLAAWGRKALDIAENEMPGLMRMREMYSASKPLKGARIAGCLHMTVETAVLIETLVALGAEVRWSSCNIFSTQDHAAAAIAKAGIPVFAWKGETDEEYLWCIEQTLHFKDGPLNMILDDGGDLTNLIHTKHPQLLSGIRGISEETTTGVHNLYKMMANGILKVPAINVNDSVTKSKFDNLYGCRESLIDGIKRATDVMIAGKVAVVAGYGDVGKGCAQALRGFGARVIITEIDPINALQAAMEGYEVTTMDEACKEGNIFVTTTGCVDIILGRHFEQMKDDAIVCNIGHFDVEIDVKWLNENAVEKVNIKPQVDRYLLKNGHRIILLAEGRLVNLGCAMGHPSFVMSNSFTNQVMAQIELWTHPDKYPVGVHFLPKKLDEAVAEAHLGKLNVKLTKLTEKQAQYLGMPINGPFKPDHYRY
Description: Rate constant for recombinant rat liver S-adenosyl-homocysteine hydrolase inactivation

The next experiment concerns the target T2, Adenosylhomocysteinase (Rattus norvegicus, UniProt P10760).
T2 sequence (P10760 whole entry): T1 sequence (whole entry)
The experiment can be described thus: Inhibitory activity against recombinant rat liver S-adenosyl-homocysteine hydrolase.

pKi: −log10 of the molar value.

The term pKi denotes the negative decadic logarithm of the Ki, by convention in mol/L. As to `Nc1ncnc2c1ncn2[C@@H]1O/C(=C/F)[C@H](O)[C@@H]1O`, the k2 in experiment [1] was 0.05 min⁻¹. In addition, the pKi at Adenosylhomocysteinase is 7.40.

In experiment [1], `Nc1ncnc2c1ncn2[C@@H]1O[C@H](C=O)[C@@H](O)[C@H]1O` registered a k2 of 0.22 min⁻¹. For the same compound, the pKi at Adenosylhomocysteinase was 7.37.

The compound `Nc1ncnc2c1ncn2[C@@H]1O/C(=C\F)[C@H](O)[C@@H]1O` showed a k2 in experiment [1] of 0.082 min⁻¹. In addition, the negative-log Ki (pKi) on Adenosylhomocysteinase was 7.41.

`Nc1ncnc2c1ncn2[C@@H]1O[C@@H](C=O)[C@@H](O)[C@H]1O` had a k2 in experiment [1] of 0.65 min⁻¹. In addition, the pKi on Adenosylhomocysteinase is 7.41.
